Experimental data: patent US11166460B2, “α-amino acrylate microbicide, and preparation method therefor and uses thereof” (priority 2017, dated 2021)
Read-outs that look alike come from different tables or passages of the source.

Assays:
[1] = test system: tobacco mosaic virus (TMV); test: Anti-TMV curative activity (treatment mode), live friction inoculation on tobacco seedlings; format: in vivo; settings: Tobacco mosaic virus, read-out: Anti-TMV activity, Curative effect (inhibition), 100 μg/mL, tobacco seedlings, checked on seventh day
[2] = test system: tobacco mosaic virus (TMV); test: Anti-TMV inactivation activity (inactivation mode), compound mixed with TMV before inoculation of tobacco leaves; format: in vivo; settings: Tobacco mosaic virus, read-out: Anti-TMV activity, Inactivation effect (inhibition)
[3] = test system: tobacco mosaic virus (TMV); test: Anti-TMV protective activity (protection mode), live friction inoculation on tobacco seedlings; format: in vivo; settings: Tobacco mosaic virus, read-out: Anti-TMV activity, Protection effect (inhibition)
[4] = test system: tobacco mosaic virus (TMV); test: Anti-TMV inducing activity (induction mode), tobacco seedlings; format: in vivo; settings: Tobacco mosaic virus, read-out: Anti-TMV activity, Induction effect (inhibition), 100 μg/mL, tobacco seedlings
Alternaria solani = test: Fungicidal activity, fungi growth rate method, AS; format: cell-based; settings: Alternaria solani, 50 μg/mL
Botrytis cinerea = test: Fungicidal activity, fungi growth rate method, BC; format: cell-based; settings: Botrytis cinerea, 50 μg/mL
Cercospora arachidicola = test: Fungicidal activity, fungi growth rate method, CA; format: cell-based; settings: Mycosphaerella arachidis, 50 μg/mL
wheat Gibberella zeae = test: microbe, parasite or virus in culture; format: cell-based; settings: Fusarium graminearum
[5] = test system: Phytophthora infestans (Mont) de Bary; test: microbe, parasite or virus in culture; format: cell-based; settings: Phytophthora infestans
Physalospora piricola = test: Fungicidal activity, fungi growth rate method, PP; format: cell-based; settings: 50 μg/mL
Pellicularia sasakii = test: Fungicidal activity, fungi growth rate method, PS; format: cell-based; settings: 50 μg/mL
Rhizoctonia cerealis = test: Fungicidal activity, fungi growth rate method, RC; format: cell-based; settings: Ceratobasidium cereale, 50 μg/mL
Sclerotinia sclerotiorum = test: microbe, parasite or virus in culture; format: cell-based; settings: Sclerotinia sclerotiorum, 50 μg/mL
[6] = read-out: Fungicidal activity, inhibition, AS
[7] = read-out: Fungicidal activity, inhibition, BC
[8] = read-out: Fungicidal activity, inhibition, CA
[9] = read-out: Fungicidal activity, inhibition, GZ
[10] = read-out: Fungicidal activity, inhibition, PI
[11] = read-out: Fungicidal activity, inhibition, PP
[12] = read-out: Fungicidal activity, inhibition, PS
[13] = read-out: Fungicidal activity, inhibition, RC
[14] = read-out: Fungicidal activity, inhibition, SS
[15] = read-out: Fungicidal activity (inhibition) against BC: Botrytis cinerea
[16] = read-out: Fungicidal activity (inhibition) against PI: Phytophthora infestans (Mont) de Bary
[17] = read-out: Fungicidal activity (inhibition) against RC: Rhizoctonia cerealis
[18] = read-out: Fungicidal activity (inhibition) against SS: Sclerotinia sclerotiorum

| Structure (SMILES) | inhibition at 100 µg/mL [1] [%] | inhibition at 100 µg/mL [2] [%] | inhibition at 100 µg/mL [3] [%] | inhibition at 100 µg/mL [4] [%] | inhibition at 50 µg/mL (Alternaria solani; [6]) [%] | inhibition at 50 µg/mL (Botrytis cinerea; [7]) [%] | inhibition at 50 µg/mL (Cercospora arachidicola; [8]) [%] | inhibition at 50 µg/mL (wheat Gibberella zeae; [9]) [%] | inhibition at 50 µg/mL [5, 10] [%] | inhibition at 50 µg/mL (Physalospora piricola; [11]) [%] | inhibition at 50 µg/mL (Pellicularia sasakii; [12]) [%] | inhibition at 50 µg/mL (Rhizoctonia cerealis; [13]) [%] | inhibition at 50 µg/mL (Sclerotinia sclerotiorum; [14]) [%] | melting point [°C] | inhibition at 50 µg/mL (Botrytis cinerea; [15]) [%] | inhibition at 50 µg/mL [5, 16] [%] | inhibition at 50 µg/mL (Rhizoctonia cerealis; [17]) [%] | inhibition at 50 µg/mL (Sclerotinia sclerotiorum; [18]) [%] | other results |
| --- | --- | --- | --- | --- | --- | --- | --- | --- | --- | --- | --- | --- | --- | --- | --- | --- | --- | --- | --- |
| O=C(NCc1ccc(C(F)(F)F)cc1)/C(=C/c1ccccc1)NC(=O)c1ccccc1 [Compound 57, N-[(1Z)-2-phenyl-1-[[(4-trifluoromethylphenylmethyl)amino]carbonyl]ethenyl]benzamide] | 52 | 61 | 4 | 0 | 16 | 10 | 4 | 31 | 0 | 0 | 19 | 10 | 50 | 167 to 168 |  |  |  |  |  |
| O=C(NC(Cc1ccccc1)C(=O)N1CCC(O)(c2ccc(Br)cc2)CC1)C1CC1 (centres unmarked) [Compound 49, N-[1-[[4-(4-bromophenyl)-4-hydroxy-1-piperidinyl]carbonyl]-2-phenylethyl]cyclopropanecarboxamide] | 29 | 31 | 41 | 21 | 28 | 15 | 12 | 43 | 11 | 6 | 14 | 18 | 50 | 101 to 103 |  |  |  |  |  |
| O=C(NCc1ccc(Br)cc1)/C(=C/c1ccccc1)NC(=O)c1ccccc1 [Compound 46, N-[(1Z)-2-phenyl-1-[[(4-bromophenylmethyl)amino]carbonyl]ethenyl]benzamide] | 33 | 64 | 41 | 44 | 7 | 9 | 18 | 43 | 11 | 12 | 2 | 13 | 34 | 192 to 194 |  |  |  |  |  |
| CC(C)(C)OC(=O)N1CCC(c2nc(/C=C(\NC(=O)c3ccccc3)C(=O)O)cs2)CC1 [Compound 74, (Z)-2-benzoylamino-3-[4-[2-[4-(1-Boc-piperidine)]thiazol]]propenoic acid] | 3 | 0 | 48 | 63 | 36 | 41 | 39 | 42 | 40 | 32 | 38 | 44 | 89 | 125 to 127 | 41 | 40 | 44 | 80 to 95 |  |
| O=C(NC1CC1)/C(=C/c1ccccc1)NC(=O)c1ccccc1 [Compound 39, (Z)-N-[1-[(cyclopropylamino)carbonyl]-2-phenylethenyl]benzamide] | 18 | 0 | 10 | 34 | 17 | 9 | 13 | 13 | 11 | 3 | 6 | 3 | 67 | 185 to 186 | ≤ 20 | < 25 | < 20 | 67 | inhibition at 50 µg/mL (Alternaria solani; read-out: Fungicidal activity (inhibition) against AS: Alternaria solani): < 30%; inhibition at 50 µg/mL (Cercospora arachidicola; read-out: Fungicidal activity (inhibition) against CA: Cercospora arachidicola): < 25%; inhibition at 50 µg/mL (wheat Gibberella zeae; read-out: Fungicidal activity (inhibition) against GZ: wheat Gibberella zeae): < 45%; inhibition at 50 µg/mL (Physalospora piricola; read-out: Fungicidal activity (inhibition) against PP: Physalospora piricola): < 20%; inhibition at 50 µg/mL (Pellicularia sasakii; read-out: Fungicidal activity (inhibition) against PS: Pellicularia sasakii): < 30% |
